Source: the NIST ThermoML archive (doi:10.1021/je0503305)
Several values for one entry are separate records, joined by “and”; a condition that tells them apart may be missing. Identical values can stand only once. ± gives the expanded uncertainty stated by the source.

Columns and labels:
[1] = Crystal; for vapor or sublimation pressure: Calculated from knudsen effusion weight loss; for Normal melting temperature: DTA
[2] = Molar enthalpy of transition or fusion; conditions: Crystal; DSC

COC(=O)c1ccccc1C(=O)O [phthalic acid, monomethyl ester]
[1]
Conditions	vapor or sublimation pressure
335.28 K	0.000112 ± 2e-05 kPa and 0.000118 ± 2e-05 kPa and 0.000115 ± 2e-05 kPa
337.26 K	0.000154 ± 2.1e-05 kPa and 0.000148 ± 2.1e-05 kPa and 0.000149 ± 2.1e-05 kPa
339.2 K	0.000184 ± 2.1e-05 kPa and 0.000187 ± 2.1e-05 kPa and 0.00019 ± 2.1e-05 kPa
341.24 K	0.000239 ± 2.2e-05 kPa and 0.000243 ± 2.2e-05 kPa
343.11 K	0.000298 ± 2.3e-05 kPa and 0.000306 ± 2.3e-05 kPa and 0.000301 ± 2.3e-05 kPa
345.27 K	0.000388 ± 2.4e-05 kPa and 0.000386 ± 2.4e-05 kPa
347.24 K	0.000471 ± 2.6e-05 kPa and 0.00048 ± 2.6e-05 kPa and 0.000468 ± 2.6e-05 kPa
349.12 K	0.000579 ± 2.9e-05 kPa and 0.000575 ± 2.9e-05 kPa and 0.000593 ± 2.9e-05 kPa
351.06 K	0.000743 ± 3.3e-05 kPa and 0.000733 ± 3.3e-05 kPa and 0.000751 ± 3.3e-05 kPa
353.23 K	0.000981 ± 4e-05 kPa and 0.000964 ± 4e-05 kPa and 0.000948 ± 3.9e-05 kPa
355.28 K	0.001233 ± 0.0001 kPa and 0.001242 ± 0.0001 kPa

Conditions	Molar enthalpy of transition or fusion [kcal/mol]	Normal melting temperature [°C]
[1]	–	84.4 ± 0.48
[2]	5.17 ± 0.263	–

COC(=O)c1cccc(C(=O)O)c1 [1,3-benzenedicarboxylic acid, monomethyl ester]
[1]
Conditions	vapor or sublimation pressure
359.26 K	0.000134 ± 2.1e-05 kPa and 0.000136 ± 2.1e-05 kPa
361.24 K	0.000172 ± 2.1e-05 kPa and 0.000169 ± 2.1e-05 kPa
363.28 K	0.000211 ± 2.1e-05 kPa and 0.00021 ± 2.1e-05 kPa and 0.000202 ± 2.1e-05 kPa
365.26 K	0.000256 ± 2.2e-05 kPa and 0.000252 ± 2.2e-05 kPa and 0.000264 ± 2.2e-05 kPa
367.13 K	0.000313 ± 2.3e-05 kPa and 0.000311 ± 2.3e-05 kPa
369.28 K	0.000397 ± 2.4e-05 kPa and 0.000399 ± 2.4e-05 kPa and 0.000382 ± 2.4e-05 kPa
371.24 K	0.000499 ± 2.7e-05 kPa and 0.000487 ± 2.6e-05 kPa and 0.000474 ± 2.6e-05 kPa
373.12 K	0.000588 ± 2.9e-05 kPa and 0.000586 ± 2.9e-05 kPa and 0.000569 ± 2.8e-05 kPa
375.27 K	0.000773 ± 3.4e-05 kPa and 0.000759 ± 3.3e-05 kPa and 0.000741 ± 3.3e-05 kPa
377.24 K	0.000953 ± 3.9e-05 kPa and 0.000928 ± 3.8e-05 kPa and 0.000917 ± 3.8e-05 kPa
379.12 K	0.001122 ± 8.9e-05 kPa and 0.001111 ± 8.8e-05 kPa

Conditions	Molar enthalpy of transition or fusion [kcal/mol]	Normal melting temperature [°C]
[1]	–	193.53 ± 0.39
[2]	8.72 ± 0.189	–

COC(=O)c1ccc(C(=O)O)cc1 [1,4-benzenedicarboxylic acid, monomethyl ester]
[1]
Conditions	vapor or sublimation pressure
363.16 K	0.000139 ± 2.1e-05 kPa and 0.00014 ± 2.1e-05 kPa
365.15 K	0.000169 ± 2.1e-05 kPa and 0.000171 ± 2.1e-05 kPa and 0.000167 ± 2.1e-05 kPa
367.19 K	0.000212 ± 2.1e-05 kPa and 0.000209 ± 2.1e-05 kPa
370.18 K	0.000289 ± 2.2e-05 kPa and 0.000294 ± 2.3e-05 kPa and 0.000286 ± 2.2e-05 kPa
372.17 K	0.000361 ± 2.4e-05 kPa and 0.000363 ± 2.4e-05 kPa and 0.000354 ± 2.4e-05 kPa
374.2 K	0.000452 ± 2.6e-05 kPa and 0.000449 ± 2.6e-05 kPa and 0.000439 ± 2.5e-05 kPa
377.37 K	0.00063 ± 3e-05 kPa and 0.000621 ± 3e-05 kPa and 0.00062 ± 3e-05 kPa
379.26 K	0.000768 ± 3.4e-05 kPa and 0.000743 ± 3.3e-05 kPa and 0.000739 ± 3.3e-05 kPa
381.51 K	0.00094 ± 3.9e-05 kPa and 0.000931 ± 3.9e-05 kPa and 0.000926 ± 3.8e-05 kPa

Conditions	Molar enthalpy of transition or fusion [kcal/mol]	Normal melting temperature [°C]
[1]	–	219.39 ± 0.39
[2]	9.01 ± 0.215	–
